{
  "source": "paper PMC9321742",
  "about": "(Viruses, 2022)",
  "tested_on": "SARS-CoV-2 B.1 (D614G) wild-type",
  "type": "cell-based",
  "note": "Values joined by “and” are separate entries in the source; they are usually repeats but may differ in a detail not shown here. Equal entries are not always repeated.",
  "data": [
    {"smiles": "O=c1nc(NO)ccn1[C@@H]1O[C@H](CO)[C@@H](O)[C@H]1O", "note": "[EIDD-1931]", "values": [
      {"measurement": "Increase in antiviral activity by the P-gp inhibitor", "result": "negligible"},
      {"measurement": "IC50", "setting": "read-out: IC50 WT Mean ± SD", "result": "1100 nM and 1500 nM"}
    ]}
  ]
}
